In BindingDB's records for doi:10.1021/jm030603w (Purdue Pharma, 2005):
Where “and” joins values, the source holds several entries; their conditions need not be identical. Equal entries are not always repeated. Structures can show the parent of a compound that is named as a salt.

Columns and labels:
Test in all cases: PDE Activity Assay
[1] = biological target: cAMP-specific 3',5'-cyclic phosphodiesterase 4A (Homo sapiens, UniProt P27815); conditions: pH 8; 22 °C
[2] = biological target: cAMP-specific 3',5'-cyclic phosphodiesterase 4B (Homo sapiens, UniProt Q07343)
Sequence of cAMP-specific 3',5'-cyclic phosphodiesterase 4B (Q07343 whole entry): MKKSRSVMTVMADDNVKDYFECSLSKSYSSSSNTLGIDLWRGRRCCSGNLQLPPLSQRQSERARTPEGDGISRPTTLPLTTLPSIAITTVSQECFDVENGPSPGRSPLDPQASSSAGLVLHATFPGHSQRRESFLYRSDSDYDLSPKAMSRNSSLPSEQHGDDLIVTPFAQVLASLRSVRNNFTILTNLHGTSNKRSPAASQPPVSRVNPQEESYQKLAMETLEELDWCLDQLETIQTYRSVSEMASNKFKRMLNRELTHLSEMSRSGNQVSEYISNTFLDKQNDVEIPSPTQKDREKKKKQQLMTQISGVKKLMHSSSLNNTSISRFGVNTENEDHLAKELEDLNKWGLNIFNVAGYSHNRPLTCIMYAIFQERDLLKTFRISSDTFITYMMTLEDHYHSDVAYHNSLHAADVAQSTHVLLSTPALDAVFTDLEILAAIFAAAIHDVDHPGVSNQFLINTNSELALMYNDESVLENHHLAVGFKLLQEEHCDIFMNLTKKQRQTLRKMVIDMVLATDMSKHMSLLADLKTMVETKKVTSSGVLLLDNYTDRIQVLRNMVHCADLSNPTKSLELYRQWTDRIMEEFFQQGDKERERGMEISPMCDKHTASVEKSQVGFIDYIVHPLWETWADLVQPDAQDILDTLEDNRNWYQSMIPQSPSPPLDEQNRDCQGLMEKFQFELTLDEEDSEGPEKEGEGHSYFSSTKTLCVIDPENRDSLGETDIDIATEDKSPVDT

[3] = biological target: cAMP-specific 3',5'-cyclic phosphodiesterase 4D (Homo sapiens, UniProt Q08499)
Sequence of cAMP-specific 3',5'-cyclic phosphodiesterase 4D (Q08499 whole entry): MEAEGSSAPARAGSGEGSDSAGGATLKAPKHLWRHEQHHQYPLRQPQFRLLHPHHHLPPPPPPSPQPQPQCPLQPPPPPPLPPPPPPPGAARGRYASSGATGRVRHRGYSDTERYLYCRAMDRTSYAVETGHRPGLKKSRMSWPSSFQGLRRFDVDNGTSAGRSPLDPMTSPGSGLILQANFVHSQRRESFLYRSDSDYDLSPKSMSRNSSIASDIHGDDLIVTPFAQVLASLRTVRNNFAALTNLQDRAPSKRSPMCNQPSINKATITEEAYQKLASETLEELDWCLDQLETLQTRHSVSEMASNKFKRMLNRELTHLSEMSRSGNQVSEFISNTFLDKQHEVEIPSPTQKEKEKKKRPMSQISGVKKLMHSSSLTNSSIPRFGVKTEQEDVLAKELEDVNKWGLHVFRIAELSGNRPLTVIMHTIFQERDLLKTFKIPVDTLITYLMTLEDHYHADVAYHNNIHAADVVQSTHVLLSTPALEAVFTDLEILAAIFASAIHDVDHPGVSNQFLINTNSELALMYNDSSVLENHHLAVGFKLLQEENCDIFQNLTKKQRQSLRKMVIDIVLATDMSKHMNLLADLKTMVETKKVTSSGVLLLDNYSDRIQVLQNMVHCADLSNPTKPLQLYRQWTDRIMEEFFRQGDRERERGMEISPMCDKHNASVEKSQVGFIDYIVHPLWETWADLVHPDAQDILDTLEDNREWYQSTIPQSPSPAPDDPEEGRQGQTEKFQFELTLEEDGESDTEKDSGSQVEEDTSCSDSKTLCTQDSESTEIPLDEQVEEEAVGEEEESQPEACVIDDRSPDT

Sequence of cAMP-specific 3',5'-cyclic phosphodiesterase 4A (P27815 whole entry): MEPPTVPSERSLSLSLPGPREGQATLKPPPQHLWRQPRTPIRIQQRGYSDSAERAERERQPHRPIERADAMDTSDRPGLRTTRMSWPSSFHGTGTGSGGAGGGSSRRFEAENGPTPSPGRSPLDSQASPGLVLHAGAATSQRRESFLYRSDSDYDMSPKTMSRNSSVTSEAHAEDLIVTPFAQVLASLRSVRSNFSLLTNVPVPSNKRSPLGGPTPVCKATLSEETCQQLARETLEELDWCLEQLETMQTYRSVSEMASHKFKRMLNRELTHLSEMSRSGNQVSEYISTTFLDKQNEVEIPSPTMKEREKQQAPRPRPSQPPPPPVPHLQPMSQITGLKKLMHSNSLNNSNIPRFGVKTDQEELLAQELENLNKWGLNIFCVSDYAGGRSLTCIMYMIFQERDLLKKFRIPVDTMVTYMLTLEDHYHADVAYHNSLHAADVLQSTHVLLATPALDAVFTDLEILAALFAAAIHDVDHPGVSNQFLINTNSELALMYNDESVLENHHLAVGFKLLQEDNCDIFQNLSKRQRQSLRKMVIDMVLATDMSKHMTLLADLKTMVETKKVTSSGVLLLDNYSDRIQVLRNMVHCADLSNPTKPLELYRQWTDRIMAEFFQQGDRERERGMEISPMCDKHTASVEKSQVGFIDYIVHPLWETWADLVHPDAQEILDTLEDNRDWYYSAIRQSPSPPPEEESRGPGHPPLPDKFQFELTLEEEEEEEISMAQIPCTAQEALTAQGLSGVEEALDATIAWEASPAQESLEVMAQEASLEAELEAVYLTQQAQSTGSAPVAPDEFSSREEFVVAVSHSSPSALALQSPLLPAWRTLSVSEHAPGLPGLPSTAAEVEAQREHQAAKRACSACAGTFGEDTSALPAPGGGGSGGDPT

Row | Ki [1] [nM] | Ki [2] [nM] | Ki [3] | SMILES
1 | 137 | 11 |  | COc1ccccc1COC(C)(C)c1nc2c(N)ncn(Cc3ccc(OC)c(OC4CCCC4)c3)c-2n1 [3-(3-Cyclopentyloxy-4-methoxy-benzyl)-8-[1-(2-methoxy-benzyloxy)-1-methyl-ethyl]-3H-purine-6-ylamine]
2 | 244 | 17.3 |  | COc1ccc(Cn2cnc(N)c3nc(C(C)(C)OCc4ccc(F)c(F)c4)nc2-3)cc1OC1CCCC1 [3-(3-Cyclopentyloxy-4-methoxy-benzyl)-8-[1-(3,4-difluoro-benzyloxy)-1-methyl-ethyl]-3Hpurin-6-ylamine Fumarate]
3 | 405 | 42.8 |  | COc1ccc(COC(C)(C)c2nc3c(N)ncn(Cc4ccc(OC)c(OC5CCCC5)c4)c-3n2)cc1OC [3-(3-Cyclopentyloxy-4-methoxy-benzyl)-8-[1-(3,4-dimethoxy-benzyloxy)-1-methyl-ethyl]-3Hpurin-6-ylamine Fumarate]
4 | 147 | 21.4 |  | COc1ccc(Cn2cnc(N)c3nc(C(C)(C)OCc4ccc5c(c4)OCO5)nc2-3)cc1OC1CCCC1 [3-(3-Cyclopentyloxy-4-methoxy-benzyl)-8-[1-(3,4-methylenedioxy-benzyloxy)-1-methyl-ethyl]-3Hpurin-6-ylamine]
5 | 208 | 11.6 |  | COc1ccc(Cn2cnc(N)c3nc(C(C)(C)OCc4cccc(F)c4)nc2-3)cc1OC1CCCC1 [3-(3-Cyclopentyloxy-4-methoxy-benzyl)-8-[1-(3-fluoro-benzyloxy)-1-methyl-ethyl]-3H-purin-6-ylamine]
6 | 1190 | 71.3 |  | COc1ccc(Cn2cnc(N)c3nc(C(C)(C)OCc4ccc(C#N)cc4)nc2-3)cc1OC1CCCC1 [3-(3-Cyclopentyloxy-4-methoxy-benzyl)-8-[1-(4-cyano-benzyloxy)-1-methyl-ethyl]-3Hpurin-6-ylamine]
7 | 5200 | 430 |  | COc1ccc(COC(C)c2nc3c(N)ncn(Cc4ccc(OC)c(OC5CCCC5)c4)c-3n2)cc1 (stereo not given) [3-(3-Cyclopentyloxy-4-methoxy-benzyl)-8-[1-(4-methoxy-benzyloxy)-ethyl]-3H-purin-6-ylamine]
8 | 206 | 9.8 |  | COc1ccc(Cn2cnc(N)c3nc(C(C)(C)OCc4ccc(C)cc4)nc2-3)cc1OC1CCCC1 [3-(3-Cyclopentyloxy-4-methoxy-benzyl)-8-[1-(4-methyl-benzyloxy)-1-methyl-ethyl]-3H-purin-6-ylamine]
9 | 175 | 5.8 |  | COc1ccc(Cn2cnc(N)c3nc(C(C)(C)OCc4ccc(C(C)(C)C)cc4)nc2-3)cc1OC1CCCC1 [3-(3-Cyclopentyloxy-4-methoxy-benzyl)-8-[1-(4-tert-butyl-benzyloxy)-1-methyl-ethyl]-3Hpurin-6-ylamine]
10 | 415 | 26.6 |  | COc1ccc(Cn2cnc(N)c3nc(C(C)(C)OCc4ccc(OC(F)(F)F)cc4)nc2-3)cc1OC1CCCC1 [3-{[3-(cyclopentyloxy)-4-methoxyphenyl]methyl}-8-(2-{[4-(trifluoromethoxy)phenyl]methoxy}propan-2-yl)-3H-purin-6-amine]
11 | 309 | 33 |  | COc1ccc(Cn2cnc(N)c3nc(C(C)(C)OCc4ccc(C(F)(F)F)cc4)nc2-3)cc1OC1CCCC1 [3-{[3-(cyclopentyloxy)-4-methoxyphenyl]methyl}-8-(2-{[4-(trifluoromethyl)phenyl]methoxy}propan-2-yl)-3H-purin-6-amine]
12 | 236 | 46.9 |  | COc1ccc(Cn2cnc(N)c3nc(C(C)(C)COc4cccs4)nc2-3)cc1OC1CCCC1 [3-{[3-(cyclopentyloxy)-4-methoxyphenyl]methyl}-8-[2-methyl-1-(thiophen-2-yloxy)propan-2-yl]-3H-purin-6-amine]
13 | 223 | 9.5 |  | COc1ccc(Cn2cnc(N)c3nc(C(C)(C)COc4ccsc4)nc2-3)cc1OC1CCCC1 [3-{[3-(cyclopentyloxy)-4-methoxyphenyl]methyl}-8-[2-methyl-1-(thiophen-3-yloxy)propan-2-yl]-3H-purin-6-amine]
14 | 3390 | 269 |  | COc1ccc(Cn2cnc(N)c3nc(C(C)OCc4ccc(F)cc4)nc2-3)cc1OC1CCCC1 (stereo not given) [3-{[3-(cyclopentyloxy)-4-methoxyphenyl]methyl}-8-{1-[(4-fluorophenyl)methoxy]ethyl}-3H-purin-6-amine]
15 | 271 | 18.9 |  | COc1ccc(Cn2cnc(N)c3nc(C(C)(C)OCc4ccccc4F)nc2-3)cc1OC1CCCC1 [3-{[3-(cyclopentyloxy)-4-methoxyphenyl]methyl}-8-{2-[(2-fluorophenyl)methoxy]propan-2-yl}-3H-purin-6-amine]
16 | 166 | 9.7 |  | COc1ccc(Cn2cnc(N)c3nc(C(C)(C)OCc4ccc(Cl)c(Cl)c4)nc2-3)cc1OC1CCCC1 [3-{[3-(cyclopentyloxy)-4-methoxyphenyl]methyl}-8-{2-[(3,4-dichlorophenyl)methoxy]propan-2-yl}-3H-purin-6-amine]
17 | 175 | 13 |  | COc1cccc(COC(C)(C)c2nc3c(N)ncn(Cc4ccc(OC)c(OC5CCCC5)c4)c-3n2)c1 [3-{[3-(cyclopentyloxy)-4-methoxyphenyl]methyl}-8-{2-[(3-methoxyphenyl)methoxy]propan-2-yl}-3H-purin-6-amine]
18 | 113 | 10.3 |  | COc1ccc(COC(C)(C)c2nc3c(N)ncn(Cc4ccc(OC)c(OC5CCCC5)c4)c-3n2)cc1 [3-{[3-(cyclopentyloxy)-4-methoxyphenyl]methyl}-8-{2-[(4-methoxyphenyl)methoxy]propan-2-yl}-3H-purin-6-amine]
19 | 15200 | 533 | 4450 nM and 640 nM and 590 nM | COc1ccc(Cn2cnc(N)c3nc(C(C)OCc4ccccc4)nc2-3)cc1OC1CCCC1 (stereo not given) [8-[1-(benzyloxy)ethyl]-3-{[3-(cyclopentyloxy)-4-methoxyphenyl]methyl}-3H-purin-6-amine]
20 | 179 | 8.9 |  | COc1ccc(Cn2cnc(N)c3nc(C(C)(C)OCc4ccccc4)nc2-3)cc1OC1CCCC1 [8-[2-(benzyloxy)propan-2-yl]-3-{[3-(cyclopentyloxy)-4-methoxyphenyl]methyl}-3H-purin-6-amine hydrochloride]
21 | 126 | 11 |  | COc1ccc(Cn2cnc(N)c3nc(C(C)(C)OCc4ccc(Cl)cc4)nc2-3)cc1OC1CCCC1 [8-{1-[(4-Chlorobenzyl)oxy]-1-methyl-ethyl}-3-[3-cyclopentyloxy)-4-methoxybenzyl]-3H-purin-6-amine]
22 | 225 | 21.9 |  | COc1cc(COC(C)(C)c2nc3c(N)ncn(Cc4ccc(OC)c(OC5CCCC5)c4)c-3n2)cc(OC)c1 [(2E)-but-2-enedioic acid; 3-{[3-(cyclopentyloxy)-4-methoxyphenyl]methyl}-8-{2-[(3,5-dimethoxyphenyl)methoxy]propan-2-yl}-3H-purin-6-amine]
